# Assays:
# [1] = system: thrombin generation in normal human plasma with rhAPC; experiment: Thrombin generation in normal human plasma in the presence of rhAPC; assay type: biochemical
# Procedure: BU titer values for FVIII antibodies added to FVIII-deficient plasma were determined using a modified Nijmegen Bethesda assay (Barrow and Lollar; JTH 2006, 4:2223-2229). Briefly, antibody was serially diluted in HBS with 0.05% Tween 80 and mixed 1:1 with pooled normal plasma that was supplemented with 100 mM Imidazole, pH 7.0. Samples were incubated at 37° C. for 2 hours then assayed by aPTT with APTT XL reagent (Pacific Hemostasis). A standard curve was derived from a serial dilution of normal plasma into FVIII deficient plasma that was also mixed 1:1 with HBST and incubated at 37° C. for 2 hours. Percent FVIII activity was plotted versus mg/ml of antibody and residual activity of 50% was defined as 1 BU/ml. In addition, endogenous thrombin potential (ETP) assays were performed as described (3). Briefly FVa mutants or saline were added to human or murine plasma (George King Bio-Medical; mouse source, 50% v/v) supplemented with […] corn trypsin inhibitor (Haematologic Technologies), 10 mM CaCl2, 10 μM phospholipid vesicles (80% phosphatidylcholine, 20% phosphatidylserine, prepared as described (6), 0.2 pM soluble tissue factor (Innovin®, Dade Behring), and 0.4 mM Z-Gly-Gly-Arg-AMC (thrombin substrate, Bachem) in HBS. After mixing, 100 μL was transferred to a FluoroNunc microtiter plate at 37° C. to monitor fluorescence (excitation at 360 nm/emission at 460 nm; Gemini EM fluorescent plate reader (Molecular Devices)). Fluorescence time course data were converted to nM thrombin as described (7). ETP, defined as the area under the curve, was determined using Prism 5.04 (Graphpad).
# APC-mediated inactivation of FVa was analyzed in ETP assays and aPTT clotting assays. FVa mutants were incubated with equal volumes of either recombinant human APC (Xigris®) or buffer in human and murine Balb/c plasma.
# Balb/c mice = experiment: Liver laceration bleeding assay, APC-induced bleeding in Balb/c mice; assay type: in vivo
# Procedure: Mice were anesthetized with Isofluorane 3% and the abdomen was opened by substernal blunt midline dissection. […] Immediately after laceration mice were positioned prone into a small weighing dish (8 cm diameter) filled with saline (37° C., 13 mL), transferred into the anesthesia chamber which rested on a heating pad (37° C.). Anesthesia was maintained at 3% Isofluorane and dishes were changed after 10 minutes to collect blood for the first and second 10 minutes separately. Blood loss was determined as described for the tail clip model. Groups of Balb/c mice were injected intravenously (tail vein) with equal volumes (200 μL) of ^superFVa or saline 2 minutes prior to intravenous injection of plasma-derived human APC, followed immediately by liver laceration. All agents were diluted in sterile sodium chloride 0.9% for injection (Hospira Inc).
# [2] = system: Balb/c mice treated with anti-FVIII antibodies; experiment: Tail clip bleeding assay in Balb/c mice treated with anti-FVIII antibodies; assay type: in vivo, mouse; settings: 20 minutes
# Procedure: Mice were anesthetized, placed on temperature controlled heating pads (37° C.), and the distal portion of the tail was cut at 1.5 mm diameter after which the tail was immersed in a predefined volume of 37° C. saline (0.9% NaCl) for 20 minutes. Blood loss was determined by the hemoglobin concentration in the saline solution after red cell lysis with 2% acetic acid and measured by absorbance at 405 nm. Using a hemoglobin standard derived from defined blood volumes, blood loss was calculated assuming a hematocrit of 46% and expressed in μL/g body weight. Groups of FVIII-deficient mice were injected intravenously (retro-orbital) within 2 minutes prior to tail cut with equal volumes ([…]) of sterile saline for injection (0.9%, Hospira Inc.), rhFVIII 200 units/kg FVIII (Xyntha®, Pfizer, NY, N.Y., USA) ^superFVa, rhFVIIa (NovoSeven®, NovoNordisk, Bagsvaerd, Denmark) or a combination of ^superFVa and rhFVIIa. All agents were diluted in sterile sodium chloride 0.9% for injection (Hospira Inc). […]
# To further elucidate the efficiency of ^superFVa to reduce bleeding in presence of inhibitors for FVIII either alone or in combination with rhFVIIa, blood loss during a 20 minute bleeding period was determined in a tail transection model in Balb/c mice treated with anti-FVIII antibodies (0.25 mg/kg). […]
# [3] = system: clot lysis time in NHP with anti-FVIII antibody; experiment: Clot lysis assay (t-PA mediated) in normal human plasma with anti-FVIII antibody; assay type: biochemical
# Procedure: FIGS. 28A and 28B show the synergistic effect of ^superFVa in combination with rhFVIIa on clot stabilization in NHP spiked with anti-FVIII antibody. Clot lysis time was determined by t-PA mediated fibrinolysis following thrombin induced fibrin clot formation in NHP spiked with anti-FVIII-antibody. (A) Increasing concentrations of rhFVIIa were added in the absence (open circle) or presence (open square) of ^superFVa (0.37 nM). (B) Increasing concentrations of ^superFVa were added in the absence (open circle) or presence (open square) of rhFVIIa (0.37 nM). Clot lysis time of NHP without inhibitors in the absence (open upward triangle) or presence of CPI (open downward triangle) represent control experiments. Normal human plasma; NHP. Carboxypeptidase inhibitor from potato tubers; CPI. Error bars represent standard error of the mean (n≥3).
# Clot stability was studied as t-PA induced clot lysis time in NHP with anti-FVIII antibodies (GMA8015) at 10 μg/mL, as well as in FVIIIdP. The concentration of antibody was based on maximal shortening of the clot lysis time from approximately 105 min to 75 min following antibody titration (data not shown). The clot lysis time in the presence of antibody (10 μg/mL) was similar to the clot lysis time in the presence of CPI, which was used as control since it causes suppression of Thrombin Activatable Fibrinolysis Inhibitor (TAFI) activation. […]
substance,measurement,setting,value
"^superFVa: engineered APC-resistant FVa variant (SEQ ID NO:4): R306Q, R506Q, R679Q, Cys609-Cys1691 disulfide, S2183A, B-domain deleted",rescue of APC-induced reduction of thrombin generation,"[1]; factor alone, rhAPC, normal human plasma (FIG. 16)",corrected thrombin generation to levels to those of normal human plasma
same,ETP restored,"[1]; human plasma, ETP maximally suppressed by APC",90-100%
same,effect on thrombin generation suppressed by APC,"[1]; human plasma, concentrations where ^superFVa restores",fully restored thrombin generation
same,mean blood loss,"Balb/c mice; ^superFVa (25 U/mL) prior to APC 1.25 mg/kg, 20 minutes after liver laceration",29 µL/g
same,bleeding-induced mortality,"Balb/c mice; ^superFVa prior to APC, liver laceration",abolished bleeding-induced mortality
same,bleeding during the 2nd 10 min phase,"Balb/c mice; ^superFVa prior to wt APC, liver laceration",fully prevented bleeding
same,blood loss,[2]; ^superFVa 10 U/kg,19.47 µL/g
same,blood loss,[2]; ^superFVa 40 U/kg,9.97 µL/g
same,concentration at which clot lysis times returned to normal,"[3]; factor alone, NHP with anti-FVIII antibody",3.33 nM
same,concentration showing enhancement of clot lysis time,"[3]; factor individually, 10 μg/ml anti-FVIII antibody",2 to 5 µg/mL
